Data taken from ChEMBL document CHEMBL2331138, “Isolation and structures of axistatins 1-3 from the Republic of Palau marine sponge Agelas axifera Hentschel ” (2013).
≈ marks a conversion by molar mass, not a printed value. Calls of active or inactive are those of the source. The rule behind the calls is not given here.

Experiments:
Candida albicans [1] = assay: Antimicrobial activity against Candida albicans ATCC 90028 assessed as growth inhibition at 64 ug/mL by NCCLS broth microdilution assay; type: functional, organism-based
Escherichia coli [2] = assay: Antimicrobial activity against Escherichia coli ATCC 25922 assessed as growth inhibition at 64 ug/mL by NCCLS broth microdilution assay; type: functional, organism-based
DU-145 = assay: Growth inhibition of human DU145 cells after 48 hrs by SRB assay; type: functional; details: DU-145, 48 h
NCI-H460 = assay: Growth inhibition of human NCI-H460 cells after 48 hrs by SRB assay; type: functional; details: NCI-H460, 48 h
SF-268 = assay: Growth inhibition of human SF268 cells after 48 hrs by SRB assay; type: functional; details: SF-268, 48 h
Enterococcus faecalis [3] = assay: Antimicrobial activity against Enterococcus faecalis ATCC 29212 assessed as growth inhibition at 64 ug/mL by NCCLS broth microdilution assay; type: functional, organism-based
Streptococcus pneumoniae [4] = assay: Antimicrobial activity against Streptococcus pneumoniae ATCC 6303 assessed as growth inhibition at 64 ug/mL by NCCLS broth microdilution assay; type: functional, organism-based
MCF7 = assay: Growth inhibition of human MCF7 cells after 48 hrs by SRB assay; type: functional; details: MCF7, 48 h
Enterobacter cloacae [5] = assay: Antimicrobial activity against Enterobacter cloacae ATCC 13047 assessed as growth inhibition at 64 ug/mL by NCCLS broth microdilution assay; type: functional, organism-based
KM-20L2 = assay: Growth inhibition of human KM20L2 cells after 48 hrs by SRB assay; type: functional; details: KM-20L2, 48 h
[6] = test system: Stenotrophomonas maltophilia; assay: Antimicrobial activity against Stenotrophomonas maltophilia ATCC 13637 assessed as growth inhibition at 64 ug/mL by NCCLS broth microdilution assay; type: functional, organism-based
Micrococcus luteus [7] = assay: Antimicrobial activity against Micrococcus luteus Presque Isle 456 assessed as growth inhibition at 64 ug/mL by NCCLS broth microdilution assay; type: functional, organism-based
Cryptococcus neoformans [8] = assay: Antimicrobial activity against Cryptococcus neoformans ATCC 90112 assessed as growth inhibition at 64 ug/mL by NCCLS broth microdilution assay; type: functional, organism-based
Staphylococcus aureus [9] = assay: Antimicrobial activity against Staphylococcus aureus ATCC 29213 assessed as growth inhibition at 64 ug/mL by NCCLS broth microdilution assay; type: functional, organism-based
Neisseria gonorrhoeae [10] = assay: Antimicrobial activity against Neisseria gonorrhoeae ATCC 49226 assessed as growth inhibition at 64 ug/mL by NCCLS broth microdilution assay; type: functional, organism-based
P388 = assay: Growth inhibition of mouse P388 cells after 48 hrs by Z1 Coulter particle counting; type: functional; details: P388, 48 h, read-out: ED50 (the source's name)
BXPC-3 = assay: Growth inhibition of human BxPC3 cells after 48 hrs by SRB assay; type: functional; details: BXPC-3, 48 h
Staphylococcus aureus [11] = assay: Antimicrobial activity against Staphylococcus aureus ATCC 29213 by NCCLS broth microdilution assay; type: functional
Streptococcus pneumoniae [12] = assay: Antimicrobial activity against Streptococcus pneumoniae ATCC 6303 by NCCLS broth microdilution assay; type: functional
Micrococcus luteus [13] = assay: Antimicrobial activity against Micrococcus luteus Presque Isle 456 by NCCLS broth microdilution assay; type: functional
Neisseria gonorrhoeae [14] = assay: Antimicrobial activity against Neisseria gonorrhoeae ATCC 49226 by NCCLS broth microdilution assay; type: functional
Enterococcus faecalis [15] = assay: Antimicrobial activity against Enterococcus faecalis ATCC 29212 by NCCLS broth microdilution assay; type: functional
Cryptococcus neoformans [16] = assay: Antimicrobial activity against Cryptococcus neoformans ATCC 90112 by NCCLS broth microdilution assay; type: functional
[17] = test system: Stenotrophomonas maltophilia; assay: Antimicrobial activity against Stenotrophomonas maltophilia ATCC 13637 by NCCLS broth microdilution assay; type: functional
Enterobacter cloacae [18] = assay: Antimicrobial activity against Enterobacter cloacae ATCC 13047 by NCCLS broth microdilution assay; type: functional
Candida albicans [19] = assay: Antimicrobial activity against Candida albicans ATCC 90028 by NCCLS broth microdilution assay; type: functional
Escherichia coli [20] = assay: Antimicrobial activity against Escherichia coli ATCC 25922 by NCCLS broth microdilution assay; type: functional

For `CNc1ncnc(N)c1N(C=O)C/C=C(\C)CC[C@]1(C)[C@@H](C)CC[C@@]2(C)C(COC(=O)c3ccc[nH]3)=CCC[C@@H]12`, the “growth inhibition (GI)” value (Candida albicans [1]) was “inactive”, the “growth inhibition (GI)” value (Escherichia coli [2]) was “inactive” and the GI50 (DU-145) was 4.6 µM. The GI50 (NCI-H460) was 3.6 µM, the GI50 (SF-268) was 3.1 µM and the “growth inhibition (GI)” value (Enterococcus faecalis [3]) was “inactive”. For the same molecule, the “growth inhibition (GI)” value (Streptococcus pneumoniae [4]) was “inactive”, the GI50 (MCF7) was 3.1 µM and the “growth inhibition (GI)” value (Enterobacter cloacae [5]) was “inactive”. The GI50 (KM-20L2) was 2.9 µM, the “growth inhibition (GI)” value [6] was “inactive” and the “growth inhibition (GI)” value (Micrococcus luteus [7]) was “inactive”. The “growth inhibition (GI)” value (Cryptococcus neoformans [8]) was “inactive”, the “growth inhibition (GI)” value (Staphylococcus aureus [9]) was “inactive” and the “growth inhibition (GI)” value (Neisseria gonorrhoeae [10]) was “inactive”. It also gave an EC50 (P388) greater than 18.2 µM and a GI50 (BXPC-3) of 4 µM.
`CNc1ncnc(N)c1N(C=O)C/C=C(\C)CC/C=C(\C)CC[C@@]1(C)C(C)=CCC[C@@H]1C` was tested, and the “growth inhibition (GI)” value (Candida albicans [1]) was “inactive”, the “growth inhibition (GI)” value (Escherichia coli [2]) was “inactive” and the GI50 (DU-145) was 6.8 µM. It also gave an MIC (Staphylococcus aureus [11]) of 8 µg/mL (≈ 18.2 µM), a GI50 (NCI-H460) of 6.8 µM and a GI50 (SF-268) of 3.9 µM. For the same molecule, the GI50 (MCF7) was 5.9 µM, the “growth inhibition (GI)” value (Enterobacter cloacae [5]) was “inactive” and the GI50 (KM-20L2) was 7.1 µM. For the same molecule, the “growth inhibition (GI)” value [6] was “inactive”, the MIC (Streptococcus pneumoniae [12]) was 32 µg/mL (≈ 72.8 µM) and the “growth inhibition (GI)” value (Cryptococcus neoformans [8]) was “inactive”. It also gave an MIC (Micrococcus luteus [13]) of 4 µg/mL (≈ 9.1 µM), an MIC (Neisseria gonorrhoeae [14]) of 16 µg/mL (≈ 36.4 µM) and an EC50 (P388) of 15.7 µM. It also gave an MIC (Enterococcus faecalis [15]) of 8 µg/mL (≈ 18.2 µM) and a GI50 (BXPC-3) of 5.9 µM.
For `CC1=CCC[C@H](C)[C@@]1(C)CC/C(C)=C/CC/C(C)=C/Cn1c[n+](C)c2ncnc(N)c21.[Cl-]` [AGELINE A], the GI50 (DU-145) was 4.2 µM, the MIC (Staphylococcus aureus [11]) was 2 µg/mL and the MIC (Cryptococcus neoformans [16]) was 2 µg/mL. The GI50 (NCI-H460) was 3.7 µM, the GI50 (SF-268) was 3.5 µM and the MIC [17] was 16 µg/mL. The GI50 (MCF7) was 3.9 µM, the GI50 (KM-20L2) was 3.5 µM and the MIC (Streptococcus pneumoniae [12]) was 16 µg/mL. For the same molecule, the MIC (Enterobacter cloacae [18]) was 32 µg/mL, the MIC (Micrococcus luteus [13]) was less than 0.5 µg/mL and the MIC (Candida albicans [19]) was 4 µg/mL. The MIC (Neisseria gonorrhoeae [14]) was 2 µg/mL, the EC50 (P388) was greater than 21.8 µM and the MIC (Enterococcus faecalis [15]) was 2 µg/mL. It also gave an MIC (Escherichia coli [20]) of 32 µg/mL and a GI50 (BXPC-3) of 3.5 µM.
`CNc1ncnc(N)c1N(C=O)C/C=C(\C)CC[C@]1(C)[C@@H](C)CC[C@@]2(C)C(C)=CCC[C@@H]12` [AXISTATIN 1] was tested, and the “growth inhibition (GI)” value (Candida albicans [1]) was “inactive”, the “growth inhibition (GI)” value (Escherichia coli [2]) was “inactive” and the GI50 (DU-145) was 4.8 µM. The MIC (Staphylococcus aureus [11]) was 1 µg/mL (≈ 2.27 µM), the MIC (Cryptococcus neoformans [16]) was 1 µg/mL (≈ 2.27 µM) and the GI50 (NCI-H460) was 4.6 µM. The GI50 (SF-268) was 3.6 µM, the GI50 (MCF7) was 5.7 µM and the “growth inhibition (GI)” value (Enterobacter cloacae [5]) was “inactive”. The GI50 (KM-20L2) was 4.1 µM, the “growth inhibition (GI)” value [6] was “inactive” and the MIC (Streptococcus pneumoniae [12]) was 8 µg/mL (≈ 18.2 µM). It also gave an MIC (Micrococcus luteus [13]) of 1 µg/mL (≈ 2.27 µM), an MIC (Neisseria gonorrhoeae [14]) of 1 µg/mL (≈ 2.27 µM) and an EC50 (P388) of 19.8 µM. It also gave an MIC (Enterococcus faecalis [15]) of 1 µg/mL (≈ 2.27 µM) and a GI50 (BXPC-3) of 4.8 µM.
With `CNc1ncnc(N)c1N(C=O)C/C=C(\C)CC[C@@]1(C)[C@H](C)CC[C@@]2(C)C(C)=CCC[C@H]12` [AXISTATIN 2] the “growth inhibition (GI)” value (Candida albicans [1]) was “inactive”, the “growth inhibition (GI)” value (Escherichia coli [2]) was “inactive” and the GI50 (DU-145) was 5 µM. For the same molecule, the MIC (Staphylococcus aureus [11]) was 1 µg/mL (≈ 2.27 µM), the MIC (Cryptococcus neoformans [16]) was 2 µg/mL (≈ 4.55 µM) and the GI50 (NCI-H460) was 4.3 µM. For the same molecule, the GI50 (SF-268) was 3.9 µM, the GI50 (MCF7) was 6.8 µM and the “growth inhibition (GI)” value (Enterobacter cloacae [5]) was “inactive”. The GI50 (KM-20L2) was 4.1 µM, the “growth inhibition (GI)” value [6] was “inactive” and the MIC (Streptococcus pneumoniae [12]) was 8 µg/mL (≈ 18.2 µM). The MIC (Micrococcus luteus [13]) was 1 µg/mL (≈ 2.27 µM), the MIC (Neisseria gonorrhoeae [14]) was 2 µg/mL (≈ 4.55 µM) and the EC50 (P388) was greater than 22.8 µM. The MIC (Enterococcus faecalis [15]) was 1 µg/mL (≈ 2.27 µM) and the GI50 (BXPC-3) was 5.5 µM.
In the case of `CNc1ncnc(NC(C)C)c1N(C=O)C/C=C(\C)CC/C=C(\C)CC[C@@]1(C)C(C)=CCC[C@@H]1C` [AXISTATIN 3], the “growth inhibition (GI)” value (Candida albicans [1]) is reported as “inactive”, the “growth inhibition (GI)” value (Escherichia coli [2]) is reported as “inactive” and the GI50 (DU-145) is reported as 7.5 µM. The MIC (Staphylococcus aureus [11]) was 4 µg/mL (≈ 8.3 µM), the MIC (Cryptococcus neoformans [16]) was 8 µg/mL (≈ 16.6 µM) and the GI50 (NCI-H460) was 5.4 µM. For the same molecule, the GI50 (SF-268) was 3.5 µM, the GI50 (MCF7) was 5.8 µM and the “growth inhibition (GI)” value (Enterobacter cloacae [5]) was “inactive”. For the same molecule, the GI50 (KM-20L2) was 6.9 µM, the “growth inhibition (GI)” value [6] was “inactive” and the MIC (Streptococcus pneumoniae [12]) was 32 µg/mL (≈ 66.4 µM). For the same molecule, the MIC (Micrococcus luteus [13]) was 8 µg/mL (≈ 16.6 µM), the MIC (Neisseria gonorrhoeae [14]) was 8 µg/mL (≈ 16.6 µM) and the EC50 (P388) was 8.9 µM. The MIC (Enterococcus faecalis [15]) was 8 µg/mL (≈ 16.6 µM) and the GI50 (BXPC-3) was 6 µM.
